Experimental data taken from patent US10196403B2, “Compounds and compositions and uses thereof” (Sunovion Pharmaceuticals Inc., priority 2016, dated 2019).

Experiments:
Type in all cases: in vivo
Male C57Bl/6J mice = test: Amphetamine-induced hyperlocomotion assay; settings: AMPH 4 mg/kg ip; stimulant-induced hyperactivity
Procedure: Amphetamine-Induced Hyperlocomotion Assay
Amphetamine (AMPH) is frequently used to induce or mimic a manic-like state. The antimanic-like effects of test compounds were evaluated in male C57Bl/6J mice. Mice were acclimatized to the experimental room for at least 1 hour prior to testing. The mice (n=10 per group) were administered vehicle or test compound and placed in the open field (OF) chambers for 30 minutes of baseline activity measurement. The mice were then injected with either water or AMPH (4 mg/kg, ip) and placed back in the OF chambers for a 60-minute testing session during which, the effects of test compounds on stimulant-induced hyperactivity behaviors (total distance traveled, rearing and stereotypy) were measured. Data were analyzed by analysis of variance (ANOVA) followed by post-hoc comparisons with Fisher Tests when appropriate.

Adult male AJ mice = test: Tail suspension test (TST); design: key: +++ = <1.0 mg/kg; ++ = 1-10 mg/kg; + = 10-30 mg/kg; NE = no effect; settings: oral gavage 30 min before test; time immobile
Description: The tail suspension test (TST) is a rodent screening test for potential (human) antidepressant drugs. It is based on the assumption that an animal will actively try to escape an aversive (stressful) stimulus. If escape is impossible, the animal will eventually stop trying (“give up”). In the TST, a mouse is suspended by the tail so that its body dangles in the air, head downward. Mice initially struggle to face upward and climb to a solid surface. When the animal stops struggling and hangs immobile it is considered to have “given up”. Shorter periods of immobility are characteristic of antidepressant-like activity. Accordingly, longer periods of immobility are considered indicative of a depressive-like state. It has been shown that treatment with an antidepressant drug will decrease the time the animal spends immobile. See generally L. Stem et al., Psychopharmacology (Berl). 1985; 85(3):367-70; B. Thierry et al., Psychopharmacology 1986; 90:284-85.
Procedure. Adult male AJ mice from Jackson Laboratories received vehicle (sterile water) or test compound orally by gavage, or the positive control desipramine (20 mg/kg, i.p.), in 10 mL/kg injection volumes, 30 min before being subjected to the Tail Suspension Test. In this test, mice are placed in the Tail Suspension chambers (white polyvinylchloride cubicles measuring 33×33×31.75 cm Med Associates, Inc. St. Albans, Vt.) by a piece of transparent (Scotch®) tape attached to the tail, from about the mid-tail, with approximately 2 cm of tape past the end of the tail for 10 min during which the time spent immobile is measured. A reduction in total time immobile relative to the vehicle condition indicates an antidepressant drug-like response.

mice = test: Neuropharmacological Assay (SmartCube); settings: for minimal effective dose: Mus musculus, read-out: POTENCY (minimal effective dose, MED); for AD: ADHD (SmartCube probability) / AG: analgesic (SmartCube probability) / AX: anxiolytic (SmartCube probability) / CE: cognitive enhancer (SmartCube probability) / DP: anti-depressant (SmartCube probability) / MS: mood stabilizer (SmartCube probability) / PS: anti-psychotic (SmartCube probability) / SD: sedative hypnotic (SmartCube probability) / UN: uncharacterized CNS activity (SmartCube probability): mice, i.p. 15 min before test, most efficacious dose(s) of 3 doses
In short: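 Behavior of treated mice captured by digital video and matched algorithmically against reference drug classes, yielding a class probability at the most efficacious of 3 i.p. doses (15 min pretreatment, NMP/PEG/propylene glycol vehicle). Potency given as MED, the mpk dose reaching ≥50% total activity across usually 0.3–30 mpk.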

[1] = MED = dose having 50% or more total activity in SmartCube

SMILES	AMPH: efficacious dose (Male C57Bl/6J mice)	TST: efficacious dose (Adult male AJ mice)	minimal effective dose (mice; [1])	AD: ADHD (SmartCube probability) (mice)	AG: analgesic (SmartCube probability) (mice)	AX: anxiolytic (SmartCube probability) (mice)	CE: cognitive enhancer (SmartCube probability) (mice)	DP: anti-depressant (SmartCube probability) (mice)	MS: mood stabilizer (SmartCube probability) (mice)	PS: anti-psychotic (SmartCube probability) (mice)	SD: sedative hypnotic (SmartCube probability) (mice)	UN: uncharacterized CNS activity (SmartCube probability) (mice)	POTENCY (minimal effective dose, MED) (mice; [1])
CNC[C@@H]1OCCc2c(F)cccc21 [Example 14, (R)-1-(5-fluoroisochroman-1-yl)-N-methylmethanamine]	+ (+ = 10-30 mg/kg)	+ (+ = 10-30 mg/kg)	< 3 mg/kg	+ (LOQ≤ + <5%)	++ (5%≤ ++ <25%)	++ (5%≤ ++ <25%)	++ (5%≤ ++ <25%)	++++ (50%≤ ++++)	++ (5%≤ ++ <25%)	++ (5%≤ ++ <25%)	++ (5%≤ ++ <25%)	+++ (25%≤ +++ <50%)	–
CNC[C@@H]1OCCc2cc(F)ccc21 [Example 17, (R)-1-(6-fluoroisochroman-1-yl)-N-methylmethanamine]	++ (++ = 1-10 mg/kg)	NE	< 3 mg/kg	+ (LOQ≤ + <5%)	++ (5%≤ ++ <25%)	++ (5%≤ ++ <25%)	+++ (25%≤ +++ <50%)	++ (5%≤ ++ <25%)	+ (LOQ≤ + <5%)	+++ (25%≤ +++ <50%)	+ (LOQ≤ + <5%)	++ (5%≤ ++ <25%)	–
CNC[C@H]1OCCc2ccc3c(c21)OC(F)(F)O3 [Example 102, (S)-1-(2,2-difluoro-6,9-dihydro-7H-[1,3]dioxolo[4,5-h]isochromen-9-yl)-N-methylmethanamine]	–	–	10 to 30 mg/kg	+ (LOQ≤ + <5%)	++ (5%≤ ++ <25%)	++ (5%≤ ++ <25%)	+ (LOQ≤ + <5%)	++ (5%≤ ++ <25%)	+ (LOQ≤ + <5%)	+ (LOQ≤ + <5%)	+ (LOQ≤ + <5%)	+++ (25%≤ +++ <50%)	–
CNC[C@@H]1OCCc2ccc3c(c21)OCC3 [Example 105, (R)-N-methyl-1-(2,3,6,9-tetrahydro-7H-furo[3,2-h]isochromen-9-yl)methanamine]	–	–	< 3 mg/kg	+ (LOQ≤ + <5%)	+ (LOQ≤ + <5%)	++ (5%≤ ++ <25%)	+ (LOQ≤ + <5%)	++ (5%≤ ++ <25%)	+ (LOQ≤ + <5%)	++ (5%≤ ++ <25%)	+++ (25%≤ +++ <50%)	+ (LOQ≤ + <5%)	–
CNC[C@H]1OCCc2ccc3c(c21)OCC3 [Example 106, (S)-N-methyl-1-(2,3,6,9-tetrahydro-7H-furo[3,2-h]isochromen-9-yl)methanamine]	–	–	10 to 30 mg/kg	+ (LOQ≤ + <5%)	+ (LOQ≤ + <5%)	++ (5%≤ ++ <25%)	+++ (25%≤ +++ <50%)	++ (5%≤ ++ <25%)	+ (LOQ≤ + <5%)	++ (5%≤ ++ <25%)	++ (5%≤ ++ <25%)	+ (LOQ≤ + <5%)	–
CNC[C@@H]1OCCc2ccc3c(c21)CCO3 [Example 107, (R)-N-methyl-1-(3,4,8,9-tetrahydro-1H-furo[2,3-h]isochromen-1-yl)methanamine]	–	–	3 to 10 mg/kg	+ (LOQ≤ + <5%)	+ (LOQ≤ + <5%)	++ (5%≤ ++ <25%)	+ (LOQ≤ + <5%)	++ (5%≤ ++ <25%)	+ (LOQ≤ + <5%)	++ (5%≤ ++ <25%)	++ (5%≤ ++ <25%)	+++ (25%≤ +++ <50%)	–
CNC[C@H]1OCCc2ccc3c(c21)CCO3 [Example 108, (S)-N-methyl-1-(3,4,8,9-tetrahydro-1H-furo[2,3-h]isochromen-1-yl)methanamine]	–	–	3 to 10 mg/kg	+ (LOQ≤ + <5%)	+ (LOQ≤ + <5%)	+ (LOQ≤ + <5%)	+ (LOQ≤ + <5%)	++ (5%≤ ++ <25%)	+ (LOQ≤ + <5%)	++ (5%≤ ++ <25%)	+ (LOQ≤ + <5%)	++++ (50%≤ ++++)	–
CNC[C@@H]1OCCc2ccc3c(c21)COC3 [Example 109]	–	–	–	+ (LOQ≤ + <5%)	+ (LOQ≤ + <5%)	++ (5%≤ ++ <25%)	+ (LOQ≤ + <5%)	++ (5%≤ ++ <25%)	+ (LOQ≤ + <5%)	++++ (50%≤ ++++)	++ (5%≤ ++ <25%)	++ (5%≤ ++ <25%)	B (>3 to 10 mpk)
